Each structure is given as a SMILES string. Starred links: 1 amine or outer side, 2 acyl side, 3 side chain; linkers in the order of their positions; H or OH if unused. Positions of bridges follow the written chain, without caps; N, C: chain ends. Non-standard residues stand in square brackets, D forms with d. Residues, ends and D or L forms follow the SMILES beside them. Trimesoyl = O=C(c1cc(C(=O)[*:2])cc(C(=O)[*:3])c1)[*:1]; d2Nal = N[C@H](Cc1ccc2ccccc2c1)C(=O)O; Dap = NC[C@H](N)C(=O)O

The target of this assay is Etf-1 (Ehrlichia chaffeensis, UniProt Q2GG12). The assay is described as follows: FP assay of Etf-1 binding with FAM-labeled peptides.
Etf-1, sequence (Q2GG12 entry or part of it): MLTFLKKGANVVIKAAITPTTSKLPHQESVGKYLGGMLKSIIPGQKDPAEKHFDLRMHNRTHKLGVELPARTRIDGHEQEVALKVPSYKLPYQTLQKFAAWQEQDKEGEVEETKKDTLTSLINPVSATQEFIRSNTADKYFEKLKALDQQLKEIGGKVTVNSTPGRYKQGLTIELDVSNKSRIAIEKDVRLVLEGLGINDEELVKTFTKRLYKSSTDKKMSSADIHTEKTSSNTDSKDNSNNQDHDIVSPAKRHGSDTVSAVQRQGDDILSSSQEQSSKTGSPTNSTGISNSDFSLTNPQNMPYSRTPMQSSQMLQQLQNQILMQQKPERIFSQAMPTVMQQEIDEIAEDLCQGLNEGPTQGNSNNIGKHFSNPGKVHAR

With `CC(C)C[C@H]1NC(=O)[C@H](CO)NC(=O)[C@H]2CCCN2C(=O)[C@H](CCC(N)=O)NC(=O)[C@H](Cc2c[nH]cn2)NC(=O)[C@H](Cc2ccc(O)cc2)NC(=O)c2cc3cc(c2)C(=O)NC[C@H](NC1=O)C(=O)N[C@@H](Cc1ccccc1)C(=O)N[C@H](Cc1ccc2ccccc2c1)C(=O)N[C@H](CCCNC(=N)N)C(=O)N[C@@H](CCCNC(=N)N)C(=O)N[C@H](CCCNC(=N)N)C(=O)N[C@@H](CCCNC(=N)N)C(=O)N[C@H](C(N)=O)CNC3=O` [Peptide B7, TMA-Tyr-His-Gln-pro-Ser-leu-Dap-Phe-nal-arg-Arg-arg-Arg-Dap] (YHQ[dP]S[dL][Dap]F[d2Nal][dR]R[dR]R[Dap]-NH2; linker N-7-14 via Trimesoyl), the affinity, expressed as Kd, was 6.5 ± 0.7 µM.

Broadly, the Kd is the constant that tells how readily two partners part at equilibrium. The low end stands for higher affinity, the high end for lower affinity.

The values are drawn from paper PMC9982066, “Inhibition of Ehrlichia chaffeensis infection by cell-permeable macrocyclic peptides that bind type IV secretion effector Etf-1” (PNAS Nexus, 2023).
